{
  "source": "paper PMC9421655",
  "about": "“Novel Antagonist of the Type 2 Lysophosphatidic Acid Receptor (LPA2), UCM-14216, Ameliorates Spinal Cord Injury in Mice” (Journal of Medicinal Chemistry, 2022)",
  "molecular_target": "T1, LPA2 (Homo sapiens, UniProt Q9HBW0)",
  "T1 construct": "expressed in transfected cells",
  "T1 sequence (Q9HBW0 whole entry, species assumed)": "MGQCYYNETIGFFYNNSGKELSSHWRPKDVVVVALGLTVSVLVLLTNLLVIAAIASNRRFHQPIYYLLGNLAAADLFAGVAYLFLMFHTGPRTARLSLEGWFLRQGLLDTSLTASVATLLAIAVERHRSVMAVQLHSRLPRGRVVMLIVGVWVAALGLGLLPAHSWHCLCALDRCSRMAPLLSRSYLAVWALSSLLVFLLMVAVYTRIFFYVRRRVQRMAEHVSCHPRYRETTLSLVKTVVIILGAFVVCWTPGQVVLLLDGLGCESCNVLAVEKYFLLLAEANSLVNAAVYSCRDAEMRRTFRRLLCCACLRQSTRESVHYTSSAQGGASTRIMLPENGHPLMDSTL",
  "experiment": "Ca2+ mobilization assay, agonist activity at LPA2",
  "format": "cell-based",
  "settings": "10 μM compound",
  "protocol": "The agonist activity at LPA2 receptors was determined at 10 μM concentration for all final compounds as previously described.[18]\nFigure S1. Representative snapshots showing the lack of significant agonist activity of selected compounds. (A) 1; (B) 13; (C) 54; and (D) Ki16425. (E) Graphs show the agonist activity induced […]\nstably expressing LPA2 receptor were plated on collagen-coated black-wall clear-bottom 96-well plates (Corning) at a density of 50000 cells/well and cultured overnight. The culture medium was then replaced with Fluo-4 NW dye loading solution containing 2.5 µM of probenecid and incubated […]\nfor 30 minutes at 37 °C followed by an additional 30 minutes at rt. Fluorescence changes were registered in a FluoStar Optima instrument (BMG Labtech) at 525 nm using an excitation wavelength of 494 nm. Each well was monitored for 240 s. 20 µL of the test compound from a 6x stock solution in assay buffer were added after 120 s of starting the measurement. Ca2+ transient increase was quantified by calculating the difference between maximum and baseline values for each […]\nGraphs shown are representative of two to three independent experiments.",
  "data": [
    {"smiles": "Cc1[nH]nc(-c2ccc(OCc3nnn[nH]3)cc2O)c1Oc1ccc(Cl)cc1Cl", "note": "[Compound 54]", "values": [
      {"measurement": "agonist activity at LPA2 receptor", "value": "lack"}
    ]}
  ]
}
